Test results published in PubChem BioAssay (NCI).
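96-well plates; 48 h exposure; 5 concentrations. Endpoints by linear interpolation between flanking doses. Not reached: highest tested concentration assigned. GI50 = concentration required for 50% inhibition of growth. At the TGI there is no net growth.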

Columns and labels:
Assay in all cases: NCI tumour cell line growth inhibition, 48 h
[1] = tested on: K-562 leukemia
[2] = tested on: HL-60(TB) leukemia
[3] = tested on: PC-3 prostate
[4] = tested on: OVCAR-4 ovarian
[5] = tested on: M14 melanoma
[6] = tested on: SR leukemia
[7] = tested on: KM12 colon
[8] = tested on: SK-MEL-28 melanoma
[9] = tested on: LOX IMVI melanoma
[10] = tested on: SK-OV-3 ovarian
[11] = tested on: A498 renal
[12] = tested on: SNB-75 CNS
[13] = tested on: U251 CNS
[14] = tested on: BT-549 breast
[15] = tested on: CAKI-1 renal
[16] = tested on: CCRF-CEM leukemia
[17] = tested on: NCI-H23 lung
[18] = tested on: HCC-2998 colon
[19] = tested on: RXF 393 renal
[20] = tested on: MDA-MB-231 breast
[21] = tested on: MALME-3M melanoma
[22] = tested on: T-47D breast
[23] = tested on: NCI-H226 lung
[24] = tested on: NCI-H460 lung
[25] = tested on: OVCAR-3 ovarian
[26] = tested on: HOP-92 NSCLC
[27] = tested on: SK-MEL-5 melanoma
[28] = tested on: OVCAR-5 ovarian

O=C(CI)OCC(COC(=O)CI)OC(=O)CI
GI50 [1]: 2.39 µM
TGI [1]: 5.73 µM
GI50 [2]: 1.99 µM
TGI [2]: 4.19 µM
GI50 [3]: 6.46 µM
TGI [3]: 20.7 µM
GI50 [4]: 1.8 µM
TGI [4]: 4.3 µM
GI50 [5]: 7.57 µM
TGI [5]: 22 µM
GI50 [6]: 2.36 µM
TGI [6]: 7.58 µM
GI50 [7]: 11.7 µM
TGI [7]: 26.8 µM
GI50 [8]: 5.54 µM
TGI [8]: 16 µM
GI50 [9]: 1.03 µM
TGI [9]: 3 µM
GI50 [10]: 17.3 µM
TGI [10]: 31.1 µM
GI50 [11]: 10.9 µM
TGI [11]: 26.7 µM
GI50 [12]: 13.7 µM
TGI [12]: 29.3 µM
GI50 [13]: 11.9 µM
TGI [13]: 25.2 µM
GI50 [14]: 4.56 µM
TGI [14]: 15.7 µM
GI50 [15]: 1.96 µM
TGI [15]: 3.91 µM
GI50 [16]: 1.73 µM
TGI [16]: 3.95 µM
GI50 [17]: 5.36 µM
TGI [17]: 19.6 µM
GI50 [18]: 16.3 µM
TGI [18]: 31.3 µM
GI50 [19]: 2.4 µM
TGI [19]: 7.55 µM
GI50 [20]: 9.3 µM
TGI [20]: 24.6 µM
GI50 [21]: 1.6 µM
TGI [21]: 3.29 µM
GI50 [22]: 1.98 µM
TGI [22]: 4.46 µM
GI50 [23]: 15.6 µM
TGI [23]: 38.8 µM
GI50 [24]: 18 µM
TGI [24]: 36.9 µM
GI50 [25]: 2.07 µM
TGI [25]: 3.94 µM
GI50 [26]: 1.86 µM
TGI [26]: 4.03 µM
GI50 [27]: 13.8 µM
TGI [27]: 27.6 µM
GI50 [28]: 16.4 µM
TGI [28]: 32.8 µM
